Experiments:
Assay in all cases: Test E preemergence
Assay type in all cases: in vivo
Conditions in all cases: scale 0 to 100
Kochia (Kochia scoparia) = tested on: Kochia (Kochia scoparia)
Procedure, shortened: (§1)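 Seeds planted in silt loam were treated preemergence, and plants in Redi-Earth peat medium at 2 to 18 cm (1- to 4-leaf) were treated postemergence, with test chemicals in non-phytotoxic solvent with surfactant. Plants kept in greenhouse 14 to 21 d, then visually rated against controls on a 0–100 scale (0 no effect, 100 complete control).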

[1] = tested on: arrowleaf Sida (Sida rhombifolia)
Procedure, shortened: as §1

[2] = tested on: barnyardgrass (Echinochloa crus-galli)
Procedure, shortened: as §1

[3] = tested on: beggarticks (hairy beggarticks, Bidens pilosa)
Procedure, shortened: as §1

corn (Zea mays) = tested on: corn (Zea mays)
Procedure, shortened: as §1

[4] = tested on: field bindweed (Convolvulus arvensis)
Procedure, shortened: as §1

[5] = tested on: foxtail, giant (giant foxtail, Setaria faberii)
Procedure, shortened: as §1

[6] = tested on: foxtail, green (green foxtail, Setaria viridis)
Procedure, shortened: as §1

[7] = tested on: goosegrass (Eleusine indica)
Procedure, shortened: as §1

[8] = tested on: lambsquarters (Chenopodium album)
Procedure, shortened: as §1

[9] = tested on: morningglory (Ipomoea coccinea)
Procedure, shortened: as §1

[10] = tested on: nightshade (eastern black nightshade, Solanum ptycanthum)
Procedure, shortened: as §1

[11] = tested on: pigweed, palmer (palmer pigweed, Amaranthus palmeri)
Procedure, shortened: as §1

[12] = tested on: ragweed (common ragweed, Ambrosia elatior)
Procedure, shortened: as §1

[13] = tested on: ryegrass, Italian (Italian ryegrass, Lolium multiflorum)
Procedure, shortened: as §1

soybean (Glycine max) = tested on: soybean (Glycine max)
Procedure, shortened: as §1

[14] = tested on: surinam grass (Brachiaria decumbens)
Procedure, shortened: as §1

[15] = tested on: velvetleaf (Abutilon theophrasti)
Procedure, shortened: as §1

[16] = tested on: waterhemp (common waterhemp, Amaranthus rudis)
Procedure, shortened: as §1

CN1C[C@H](c2ccc(C(F)(F)F)cc2)[C@@H](C(=O)Nc2cccc(F)c2F)C1=O [Compound 623, (3S,4S)—N-(2,3-difluorophenyl)-1-methyl-2-oxo-4-[4-(trifluoromethyl)phenyl]-3-pyrrolidinecarboxamide]
Plant response rating: Kochia (Kochia (Kochia scoparia); 31 g ai/ha): 90
Plant response rating: Kochia (Kochia (Kochia scoparia); 62 g ai/ha): 90
Plant response rating: Kochia (Kochia (Kochia scoparia); 125 g ai/ha): 95
Plant response rating: Kochia (Kochia (Kochia scoparia); 250 g ai/ha): 95
Plant response rating: Arrowleaf Sida ([1]; 31 g ai/ha): 20
Plant response rating: Arrowleaf Sida ([1]; 62 g ai/ha): 80
Plant response rating: Arrowleaf Sida ([1]; 125 g ai/ha): 85
Plant response rating: Arrowleaf Sida ([1]; 250 g ai/ha): 90
Plant response rating: Barnyardgrass ([2]; 31 g ai/ha): 95
Plant response rating: Barnyardgrass ([2]; 62 g ai/ha): 95
Plant response rating: Barnyardgrass ([2]; 125 g ai/ha): 98
Plant response rating: Barnyardgrass ([2]; 250 g ai/ha): 98
Plant response rating: Beggarticks ([3]; 31 g ai/ha): 0
Plant response rating: Beggarticks ([3]; 62 g ai/ha): 0
Plant response rating: Beggarticks ([3]; 125 g ai/ha): 0
Plant response rating: Beggarticks ([3]; 250 g ai/ha): 35
Plant response rating: Corn (corn (Zea mays); 31 g ai/ha): 0
Plant response rating: Corn (corn (Zea mays); 62 g ai/ha): 60
Plant response rating: Corn (corn (Zea mays); 125 g ai/ha): 75
Plant response rating: Corn (corn (Zea mays); 250 g ai/ha): 65
Plant response rating: Field Bindweed ([4]; 31 g ai/ha): 0
Plant response rating: Field Bindweed ([4]; 62 g ai/ha): 60
Plant response rating: Field Bindweed ([4]; 125 g ai/ha): 70
Plant response rating: Field Bindweed ([4]; 250 g ai/ha): 75
Plant response rating: Foxtail, Giant ([5]; 31 g ai/ha): 95
Plant response rating: Foxtail, Giant ([5]; 62 g ai/ha): 95
Plant response rating: Foxtail, Giant ([5]; 125 g ai/ha): 95
Plant response rating: Foxtail, Giant ([5]; 250 g ai/ha): 95
Plant response rating: Foxtail, Green ([6]; 31 g ai/ha): 95
Plant response rating: Foxtail, Green ([6]; 62 g ai/ha): 95
Plant response rating: Foxtail, Green ([6]; 125 g ai/ha): 98
Plant response rating: Foxtail, Green ([6]; 250 g ai/ha): 98
Plant response rating: Goosegrass ([7]; 31 g ai/ha): 95
Plant response rating: Goosegrass ([7]; 62 g ai/ha): 98
Plant response rating: Goosegrass ([7]; 125 g ai/ha): 98
Plant response rating: Goosegrass ([7]; 250 g ai/ha): 98
Plant response rating: Lambsquarters ([8]; 31 g ai/ha): 90
Plant response rating: Lambsquarters ([8]; 62 g ai/ha): 90
Plant response rating: Lambsquarters ([8]; 125 g ai/ha): 100
Plant response rating: Lambsquarters ([8]; 250 g ai/ha): 95
Plant response rating: Morningglory ([9]; 31 g ai/ha): 0
Plant response rating: Morningglory ([9]; 62 g ai/ha): 0
Plant response rating: Morningglory ([9]; 125 g ai/ha): 0
Plant response rating: Morningglory ([9]; 250 g ai/ha): 0
Plant response rating: Nightshade ([10]; 62 g ai/ha): 35
Plant response rating: Nightshade ([10]; 125 g ai/ha): 70
Plant response rating: Nightshade ([10]; 250 g ai/ha): 70
Plant response rating: Pigweed, Palmer ([11]; 31 g ai/ha): 75
Plant response rating: Pigweed, Palmer ([11]; 62 g ai/ha): 90
Plant response rating: Pigweed, Palmer ([11]; 125 g ai/ha): 95
Plant response rating: Pigweed, Palmer ([11]; 250 g ai/ha): 95
Plant response rating: Ragweed ([12]; 31 g ai/ha): 60
Plant response rating: Ragweed ([12]; 62 g ai/ha): 90
Plant response rating: Ragweed ([12]; 125 g ai/ha): 95
Plant response rating: Ragweed ([12]; 250 g ai/ha): 85
Plant response rating: Ryegrass, Italian ([13]; 31 g ai/ha): 25
Plant response rating: Ryegrass, Italian ([13]; 62 g ai/ha): 50
Plant response rating: Ryegrass, Italian ([13]; 125 g ai/ha): 60
Plant response rating: Ryegrass, Italian ([13]; 250 g ai/ha): 90
Plant response rating: Soybean (soybean (Glycine max); 31 g ai/ha): 0
Plant response rating: Soybean (soybean (Glycine max); 62 g ai/ha): 0
Plant response rating: Soybean (soybean (Glycine max); 125 g ai/ha): 0
Plant response rating: Soybean (soybean (Glycine max); 250 g ai/ha): 0
Plant response rating: Surinam Grass ([14]; 31 g ai/ha): 75
Plant response rating: Surinam Grass ([14]; 62 g ai/ha): 90
Plant response rating: Surinam Grass ([14]; 125 g ai/ha): 90
Plant response rating: Surinam Grass ([14]; 250 g ai/ha): 90
Plant response rating: Velvetleaf ([15]; 31 g ai/ha): 0
Plant response rating: Velvetleaf ([15]; 62 g ai/ha): 50
Plant response rating: Velvetleaf ([15]; 125 g ai/ha): 65
Plant response rating: Velvetleaf ([15]; 250 g ai/ha): 65
Plant response rating: Waterhemp ([16]; 31 g ai/ha): 90
Plant response rating: Waterhemp ([16]; 62 g ai/ha): 90
Plant response rating: Waterhemp ([16]; 125 g ai/ha): 95
Plant response rating: Waterhemp ([16]; 250 g ai/ha): 95

CN1C[C@H](c2ccc(F)c(F)c2)[C@@H](C(=O)Nc2ccccc2F)C1=O [Compound 596, (3S,4S)-4-(3,4-difluorophenyl)-N-(2-fluorophenyl)-1-methyl-2-oxo-3-pyrrolidinecarboxamide]
Plant response rating: Kochia (Kochia (Kochia scoparia); 31 g ai/ha): 0
Plant response rating: Kochia (Kochia (Kochia scoparia); 62 g ai/ha): 25
Plant response rating: Kochia (Kochia (Kochia scoparia); 125 g ai/ha): 80
Plant response rating: Kochia (Kochia (Kochia scoparia); 250 g ai/ha): 90
Plant response rating: Arrowleaf Sida ([1]; 31 g ai/ha): 35
Plant response rating: Arrowleaf Sida ([1]; 62 g ai/ha): 30
Plant response rating: Arrowleaf Sida ([1]; 125 g ai/ha): 30
Plant response rating: Arrowleaf Sida ([1]; 250 g ai/ha): 50
Plant response rating: Barnyardgrass ([2]; 31 g ai/ha): 95
Plant response rating: Barnyardgrass ([2]; 62 g ai/ha): 98
Plant response rating: Barnyardgrass ([2]; 125 g ai/ha): 98
Plant response rating: Barnyardgrass ([2]; 250 g ai/ha): 98
Plant response rating: Beggarticks ([3]; 31 g ai/ha): 0
Plant response rating: Beggarticks ([3]; 62 g ai/ha): 0
Plant response rating: Beggarticks ([3]; 125 g ai/ha): 0
Plant response rating: Beggarticks ([3]; 250 g ai/ha): 0
Plant response rating: Corn (corn (Zea mays); 31 g ai/ha): 0
Plant response rating: Corn (corn (Zea mays); 62 g ai/ha): 0
Plant response rating: Corn (corn (Zea mays); 125 g ai/ha): 0
Plant response rating: Corn (corn (Zea mays); 250 g ai/ha): 0
Plant response rating: Field Bindweed ([4]; 31 g ai/ha): 0
Plant response rating: Field Bindweed ([4]; 62 g ai/ha): 0
Plant response rating: Field Bindweed ([4]; 125 g ai/ha): 0
Plant response rating: Field Bindweed ([4]; 250 g ai/ha): 15
Plant response rating: Foxtail, Giant ([5]; 31 g ai/ha): 95
Plant response rating: Foxtail, Giant ([5]; 62 g ai/ha): 95
Plant response rating: Foxtail, Giant ([5]; 125 g ai/ha): 98
Plant response rating: Foxtail, Giant ([5]; 250 g ai/ha): 98
Plant response rating: Foxtail, Green ([6]; 31 g ai/ha): 95
Plant response rating: Foxtail, Green ([6]; 62 g ai/ha): 95
Plant response rating: Foxtail, Green ([6]; 125 g ai/ha): 95
Plant response rating: Foxtail, Green ([6]; 250 g ai/ha): 95
Plant response rating: Goosegrass ([7]; 31 g ai/ha): 5
Plant response rating: Goosegrass ([7]; 62 g ai/ha): 5
Plant response rating: Goosegrass ([7]; 125 g ai/ha): 25
Plant response rating: Goosegrass ([7]; 250 g ai/ha): 65
Plant response rating: Lambsquarters ([8]; 31 g ai/ha): 25
Plant response rating: Lambsquarters ([8]; 62 g ai/ha): 25
Plant response rating: Lambsquarters ([8]; 125 g ai/ha): 80
Plant response rating: Lambsquarters ([8]; 250 g ai/ha): 90
Plant response rating: Morningglory ([9]; 31 g ai/ha): 0
Plant response rating: Morningglory ([9]; 62 g ai/ha): 0
Plant response rating: Morningglory ([9]; 125 g ai/ha): 0
Plant response rating: Morningglory ([9]; 250 g ai/ha): 0
Plant response rating: Nightshade ([10]; 31 g ai/ha): 0
Plant response rating: Nightshade ([10]; 62 g ai/ha): 0
Plant response rating: Nightshade ([10]; 125 g ai/ha): 0
Plant response rating: Nightshade ([10]; 250 g ai/ha): 60
Plant response rating: Pigweed, Palmer ([11]; 31 g ai/ha): 0
Plant response rating: Pigweed, Palmer ([11]; 62 g ai/ha): 0
Plant response rating: Pigweed, Palmer ([11]; 125 g ai/ha): 0
Plant response rating: Pigweed, Palmer ([11]; 250 g ai/ha): 40
Plant response rating: Ragweed ([12]; 31 g ai/ha): 0
Plant response rating: Ragweed ([12]; 62 g ai/ha): 0
Plant response rating: Ragweed ([12]; 125 g ai/ha): 25
Plant response rating: Ragweed ([12]; 250 g ai/ha): 50
Plant response rating: Ryegrass, Italian ([13]; 31 g ai/ha): 0
Plant response rating: Ryegrass, Italian ([13]; 62 g ai/ha): 0
Plant response rating: Ryegrass, Italian ([13]; 125 g ai/ha): 35
Plant response rating: Ryegrass, Italian ([13]; 250 g ai/ha): 50
Plant response rating: Soybean (soybean (Glycine max); 31 g ai/ha): 0
Plant response rating: Soybean (soybean (Glycine max); 62 g ai/ha): 0
Plant response rating: Soybean (soybean (Glycine max); 125 g ai/ha): 0
Plant response rating: Soybean (soybean (Glycine max); 250 g ai/ha): 0
Plant response rating: Surinam Grass ([14]; 31 g ai/ha): 35
Plant response rating: Surinam Grass ([14]; 62 g ai/ha): 65
Plant response rating: Surinam Grass ([14]; 125 g ai/ha): 95
Plant response rating: Surinam Grass ([14]; 250 g ai/ha): 95
Plant response rating: Velvetleaf ([15]; 31 g ai/ha): 0
Plant response rating: Velvetleaf ([15]; 62 g ai/ha): 0
Plant response rating: Velvetleaf ([15]; 125 g ai/ha): 0
Plant response rating: Velvetleaf ([15]; 250 g ai/ha): 35
Plant response rating: Waterhemp ([16]; 31 g ai/ha): 0
Plant response rating: Waterhemp ([16]; 62 g ai/ha): 0
Plant response rating: Waterhemp ([16]; 125 g ai/ha): 0
Plant response rating: Waterhemp ([16]; 250 g ai/ha): 50
